Data taken from patent US11850220B2 (Augusta University Research Institute, Inc., priority 2020, dated 2023).

Assays:
Format in all cases: in vivo
[1] = system: carrageenan-induced paw edema; test: carrageenan-induced paw edema technique (anti-inflammatory); conditions: for Observed (1/property): 1/(% inhibition of edema thickness at 3 h effect); on Observed (1/property): test concentration or dose not given here; on Potency (% Inhibition relative to indomethacin at 3 h effect): test concentration or dose not given here
Description: Anti-inflammatory properties of the ibuprofen-amino acid conjugate (5a-j) and ibuprofen-amino acid-4-aminophenol conjugates 7a-j were studied by the standard carrageenan-induced paw edema technique (Naumov, R. N. et al., Bioorg. Med. Chem. Lett. 2015, 25, 2314-2320; Tiwari, A. D. et al., Org. Biomol. Chem. 2014, 12, 7238-7249).

hot plate = hot plate technique (central analgesic); conditions: for Potency: Relative to indomethacin at 120 min.
[2] = system: acetic acid-induced abdominal writhing; test: acetic acid-induced abdominal writhing technique (peripheral analgesic); conditions: for Potency: Relative to indomethacin; for % Inhibition/protection / Writing reflex ± SEM: in vivo; on % Inhibition/protection: test concentration or dose not given here; on Writing reflex ± SEM: test concentration or dose not given here
[3] = % inhibition of edema thickness at 3 h effect, Table 7
[4] = anti-inflammatory property (% inhibition of edema at 3 h), Table 8

CC[C@H](C)C(NC(=O)C(C)c1ccc(CC(C)C)cc1)C(=O)O (stereo in doubt) [Compound 5f, (2-(4-Isobutylphenyl)propanoyl)-L-isoleucine]
Observed (1/property) ([1]; Table 7): 0.01613
% inhibition of edema ([1]; 1 h): 27%
Mean edema thickness ([1]; 1 h): 0.90 ± 0.05 mm
% inhibition of edema ([1]; 2 h): 29%
Mean edema thickness ([1]; 2 h): 1.07 ± 0.06 mm
% inhibition of edema ([1]; 3 h): 62%
Mean edema thickness ([1]; 3 h): 0.50 ± 0.03 mm
% inhibition of edema ([1]; 4 h): 29%
Mean edema thickness ([1]; 4 h): 0.89 ± 0.04 mm
% inhibition of edema ([1]; 24 h): 47%
Mean edema thickness ([1]; 24 h): 0.10 ± 0.03 mm
Observed property [1, 3]: 62%
Observed property [1, 4]: 62%
Potency (% Inhibition relative to indomethacin at 3 h effect) [1]: 78%
% protection (hot plate; After 30 min.): (14.9) %
Latency period ± SEM (hot plate; After 30 min.): 2.78 ± 0.05 s
% protection (hot plate; After 60 min.): (15.2) %
Latency period ± SEM (hot plate; After 60 min.): 2.57 ± 0.07 s
% protection (hot plate; After 90 min.): (25.9) %
Latency period ± SEM (hot plate; After 90 min.): 2.77 ± 0.05 s
% protection (hot plate; After 120 min.): (48.9) %
Latency period ± SEM (hot plate; After 120 min.): 3.26 ± 0.04 s
Potency (hot plate): 86
Potency [2]: 85
% Inhibition/protection [2]: 46.8%
Writing reflex ± SEM [2]: 51.8 ± 1.6

CC(C)Cc1ccc(C(C)C(=O)N[C@@H](C)C(=O)O)cc1 (stereo partly drawn) [Compound 5b, (2-(4-Isobutylphenyl)propanoyl)-L-alanine]
Observed (1/property) ([1]; Table 7): 0.01923
% inhibition of edema ([1]; 1 h): 34%
Mean edema thickness ([1]; 1 h): 0.81 ± 0.04 mm
% inhibition of edema ([1]; 2 h): 37%
Mean edema thickness ([1]; 2 h): 0.95 ± 0.02 mm
% inhibition of edema ([1]; 3 h): 52%
Mean edema thickness ([1]; 3 h): 0.63 ± 0.01 mm
% inhibition of edema ([1]; 4 h): 51%
Mean edema thickness ([1]; 4 h): 0.61 ± 0.03 mm
% inhibition of edema ([1]; 24 h): 32%
Mean edema thickness ([1]; 24 h): 0.13 ± 0.03 mm
Observed property [1, 3]: 52%
Observed property [1, 4]: 52%
Potency (% Inhibition relative to indomethacin at 3 h effect) [1]: 65%
% protection (hot plate; After 30 min.): (12.8) %
Latency period ± SEM (hot plate; After 30 min.): 2.73 ± 0.03 s
% protection (hot plate; After 60 min.): (17.0) %
Latency period ± SEM (hot plate; After 60 min.): 2.61 ± 0.12 s
% protection (hot plate; After 90 min.): (20.9) %
Latency period ± SEM (hot plate; After 90 min.): 2.66 ± 0.01 s
% protection (hot plate; After 120 min.): (21.9) %
Latency period ± SEM (hot plate; After 120 min.): 2.67 ± 0.06 s
Potency (hot plate): 39
Potency [2]: 80
% Inhibition/protection [2]: 43.8%
Writing reflex ± SEM [2]: 54.7 ± 2.0

CC(C)Cc1ccc(C(C)C(=O)NCCC(=O)O)cc1 (stereo not drawn) [Compound 5c, 3-(2-(4-Isobutylphenyl)propanamido)propanoic acid]
Observed (1/property) ([1]; Table 7): 0.01887
% inhibition of edema ([1]; 1 h): 43%
Mean edema thickness ([1]; 1 h): 0.70 ± 0.03 mm
% inhibition of edema ([1]; 2 h): 29%
Mean edema thickness ([1]; 2 h): 1.07 ± 0.07 mm
% inhibition of edema ([1]; 3 h): 53%
Mean edema thickness ([1]; 3 h): 0.61 ± 0.04 mm
% inhibition of edema ([1]; 4 h): 36%
Mean edema thickness ([1]; 4 h): 0.80 ± 0.03 mm
% inhibition of edema ([1]; 24 h): 21%
Mean edema thickness ([1]; 24 h): 0.15 ± 0.01 mm
Observed property [1, 3]: 53%
Observed property [1, 4]: 53%
Potency (% Inhibition relative to indomethacin at 3 h effect) [1]: 66%
% protection (hot plate; After 30 min.): (16.5) %
Latency period ± SEM (hot plate; After 30 min.): 2.82 ± 0.04 s
% protection (hot plate; After 60 min.): (35.0) %
Latency period ± SEM (hot plate; After 60 min.): 3.01 ± 0.02 s
% protection (hot plate; After 90 min.): (20.5) %
Latency period ± SEM (hot plate; After 90 min.): 2.65 ± 0.05 s
% protection (hot plate; After 120 min.): (20.1) %
Latency period ± SEM (hot plate; After 120 min.): 2.63 ± 0.10 s
Potency (hot plate): 36
Potency [2]: 8
% Inhibition/protection [2]: 4.2%
Writing reflex ± SEM [2]: 93.2 ± 1.4

CC(C)Cc1ccc(C(C)C(=O)N[C@@H](Cc2ccccc2)C(=O)O)cc1 (stereo partly drawn) [Compound 5e, (2-(4-Isobutylphenyl)propanoyl)-L-phenylalanine]
Observed (1/property) ([1]; Table 7): 0.01613
% inhibition of edema ([1]; 1 h): 25%
Mean edema thickness ([1]; 1 h): 0.92 ± 0.07 mm
% inhibition of edema ([1]; 2 h): 19%
Mean edema thickness ([1]; 2 h): 1.22 ± 0.08 mm
% inhibition of edema ([1]; 3 h): 62%
Mean edema thickness ([1]; 3 h): 0.50 ± 0.04 mm
% inhibition of edema ([1]; 4 h): 30%
Mean edema thickness ([1]; 4 h): 0.88 ± 0.05 mm
% inhibition of edema ([1]; 24 h): 74%
Mean edema thickness ([1]; 24 h): 0.05 ± 0.02 mm
Observed property [1, 3]: 62%
Observed property [1, 4]: 62%
Potency (% Inhibition relative to indomethacin at 3 h effect) [1]: 78%
% protection (hot plate; After 30 min.): (24.0) %
Latency period ± SEM (hot plate; After 30 min.): 3.00 ± 0.04 s
% protection (hot plate; After 60 min.): (30.5) %
Latency period ± SEM (hot plate; After 60 min.): 2.91 ± 0.01 s
% protection (hot plate; After 90 min.): (35.5) %
Latency period ± SEM (hot plate; After 90 min.): 2.98 ± 0.03 s
% protection (hot plate; After 120 min.): (48.4) %
Latency period ± SEM (hot plate; After 120 min.): 3.25 ± 0.02 s
Potency (hot plate): 86
Potency [2]: 84
% Inhibition/protection [2]: 46.0%
Writing reflex ± SEM [2]: 52.5 ± 1.2

CC(C)Cc1ccc(C(C)C(=O)N[C@@H](CC(C)C)C(=O)O)cc1 (stereo partly drawn) [Compound 5g]
Observed (1/property) ([1]; Table 7): 0.01724
% inhibition of edema ([1]; 1 h): 5%
Mean edema thickness ([1]; 1 h): 1.17 ± 0.07 mm
% inhibition of edema ([1]; 2 h): 24%
Mean edema thickness ([1]; 2 h): 1.15 ± 0.06 mm
% inhibition of edema ([1]; 3 h): 58%
Mean edema thickness ([1]; 3 h): 0.55 ± 0.04 mm
% inhibition of edema ([1]; 4 h): 40%
Mean edema thickness ([1]; 4 h): 0.75 ± 0.05 mm
% inhibition of edema ([1]; 24 h): 42%
Mean edema thickness ([1]; 24 h): 0.11 ± 0.04 mm
Observed property [1, 3]: 58%
Observed property [1, 4]: 58%
Potency (% Inhibition relative to indomethacin at 3 h effect) [1]: 73%
% protection (hot plate; After 30 min.): (27.7) %
Latency period ± SEM (hot plate; After 30 min.): 3.09 ± 0.04 s
% protection (hot plate; After 60 min.): (28.7) %
Latency period ± SEM (hot plate; After 60 min.): 2.87 ± 0.03 s
% protection (hot plate; After 90 min.): (4.1) %
Latency period ± SEM (hot plate; After 90 min.): 2.29 ± 0.05 s
% protection (hot plate; After 120 min.): (3.7) %
Latency period ± SEM (hot plate; After 120 min.): 2.27 ± 0.03 s
Potency (hot plate): 7
Potency [2]: 89
% Inhibition/protection [2]: 48.9%
Writing reflex ± SEM [2]: 49.7 ± 1.2

CC(C)Cc1ccc(C(C)C(=O)N[C@H](C(=O)O)C(C)C)cc1 (stereo partly drawn) [Compound 5h]
Observed (1/property) ([1]; Table 7): 0.01754
% inhibition of edema ([1]; 1 h): 11%
Mean edema thickness ([1]; 1 h): 1.09 ± 0.08 mm
% inhibition of edema ([1]; 2 h): 14%
Mean edema thickness ([1]; 2 h): 1.30 ± 0.07 mm
% inhibition of edema ([1]; 3 h): 57%
Mean edema thickness ([1]; 3 h): 0.56 ± 0.05 mm
% inhibition of edema ([1]; 4 h): 49%
Mean edema thickness ([1]; 4 h): 0.64 ± 0.06 mm
% inhibition of edema ([1]; 24 h): 84%
Mean edema thickness ([1]; 24 h): 0.03 ± 0.02 mm
Observed property [1, 3]: 57%
Observed property [1, 4]: 57%
Potency (% Inhibition relative to indomethacin at 3 h effect) [1]: 72%
% protection (hot plate; After 30 min.): (12.8) %
Latency period ± SEM (hot plate; After 30 min.): 2.73 ± 0.05 s
% protection (hot plate; After 60 min.): (20.6) %
Latency period ± SEM (hot plate; After 60 min.): 2.69 ± 0.04 s
% protection (hot plate; After 90 min.): (9.5) %
Latency period ± SEM (hot plate; After 90 min.): 2.41 ± 0.02 s
% protection (hot plate; After 120 min.): (6.4) %
Latency period ± SEM (hot plate; After 120 min.): 2.33 ± 0.02 s
Potency (hot plate): 11
Potency [2]: 54
% Inhibition/protection [2]: 29.6%
Writing reflex ± SEM [2]: 68.5 ± 2.0
